Experimental data from paper PMC11458958 (iScience, 2024).
Residues, ends and D or L forms follow the SMILES beside them. *: point of attachment. Cbz = O=C(OCc1ccccc1)*

Columns and labels:
[1] = test system: mice with post-infarction remodeling; format: in vivo, C57BL/6J mice; conditions: 20 mg/kg daily oral
TAC mice = test: Transverse aortic constriction
cathepsins B and L = conditions: cited from earlier work
[2] = test system: mice subjected to coronary occlusion and reperfusion; test: In vivo acute reperfusion injury: 45 min coronary occlusion, 24 h reperfusion; design: species or system C57BL/6J mice; conditions: 25 mg/kg i.p. 10 min before reperfusion
cathepsin L = test: Cathepsin activity in heart homogenates; format: in vivo, C57BL/6J mice; conditions: 25 mg/kg
cathepsins K, B, L and S = conditions: 25 mg/kg; cited from earlier work
[3] = 4 weeks after TAC, 10 mg/kg daily oral from 1 to 4 weeks after TAC (3w)

CCOC(=O)[C@H](CCc1ccccc1)N[C@@H](C)C(=O)N1CCC[C@H]1C(=O)O [Enalapril]
EF ([1]; 4 weeks of reperfusion): 52.6 ± 2.2%
FS ([1]; 4 weeks of reperfusion): 22.7 ± 1.3%
IVST ([1]; 4 weeks of reperfusion): 0.79 ± 0.03 mm
LVEDD ([1]; 4 weeks of reperfusion): 4.85 ± 0.19 mm
LVESD ([1]; 4 weeks of reperfusion): 3.75 ± 0.12 mm
LVPWT ([1]; 4 weeks of reperfusion): 0.67 ± 0.02 mm
reduction of scar size vs. control group ([1]; 28 days): 24%
mortality rate ([1]; 28 days of reperfusion): 20%
EF (TAC mice; [3]): 49.5 ± 1.6^$∗ %
FS (TAC mice; [3]): 20.8 ± 0.8^$∗ %
HW (TAC mice; [3]): 151.8 ± 4.9 mg
HW/TL (TAC mice; [3]): 8.68 ± 0.26^$∗ mg/mm
IVST (TAC mice; [3]): 0.97 ± 0.03^$∗ mm
LVEDD (TAC mice; [3]): 4.48 ± 0.05∗ mm
LVESD (TAC mice; [3]): 3.55 ± 0.05^$∗ mm
LVPWT (TAC mice; [3]): 0.78 ± 0.03^$ mm
EF reduction with respect to baseline (TAC mice; 4 weeks after TAC, 10 mg/kg daily oral starting 1 week after TAC): 16%
capillary density (CD31 staining) (TAC mice; starting 1 week after TAC surgery, 10 mg/kg daily oral): preserved capillary density

CC(C)[C@H](NC(=O)OCc1ccccc1)C(=O)N[C@H](C=O)Cc1ccccc1 [MDL-28170] (Cbz-Val-Phe-aldehyde)
cathepsin inhibition (cathepsins B and L): inhibit at least cathepsins B and L

COCCOCCOC(=O)N[C@@H](CC(C)C)C(=O)N[C@@H](Cc1ccccc1)C(=O)C(=O)NC1CC1 [SNJ-1945]
cathepsin inhibition (cathepsins B and L): inhibit at least cathepsins B and L

CCCN1CCN(c2ccc(C(=O)NC3(C(=O)NCC#N)CCCCC3)cc2)CC1 [balicatib]
effect on infarct size [2]: failed to attenuate infarct size
cathepsin L activity in heart homogenates, reduced, compared to sham mice (cathepsin L): 41.2 ± 7.3%
cathepsin inhibition at this dose (cathepsins K, B, L and S): inhibits cathepsins K, B, L and S
